# Test results taken from patent US20210106550A1, “COMPOSITIONS FOR PREVENTING OR TREATING COGNITIVE IMPAIRMENT-RELATED DISEASE COMPRISING MUMEFURAL” (KOREA INSTITUTE OF ORIENTAL MEDICINE, priority 2018, published 2021).
# System: microglia
# Test: immunohistostaining of lba-1 (microglia) in hippocampus and white matter
# Format: in vivo, Wistar rats
# Conditions: compared with the negative control
# Experimental: Specifically, 12-week-old Wister rats (350 g to 380 g) were used for the experiments. After obtaining the experimental animals, appearance was visually inspected and then normal symptoms were observed during a 7-day acclimation period. Healthy animals were selected therefrom and assigned to groups by a random method according to body weight ranges, and then experiments were performed. During the acclimation and experiment, a constant breeding environment was maintained under the conditions of a temperature of 23±3° C., a relative humidity of 50±10%, a ventilation frequency of 12 times to 16 times per hour, a 12-hour light-dark cycle (light on at 7:00, light off at 19:00), and an intensity of illumination of 150 Lx to 300 Lx. Experiments were performed using sterilized instruments, and the rats were allowed free access to tap water and a solid feed (PMI nutrition, USA) for 24 hours. […]
# In order to investigate effects of mumefural on normalization of damaged hippocampus and corpus callosum of white matter in the dementia-mimic animal model, mumefural was administered in the same manner as in Example 1, and then microglia and astrocytes were detected in the hippocampus and white matter to identify gliosis. […]
smiles,measurement,setting,value
O=Cc1ccc(COC(=O)CC(O)(CC(=O)O)C(=O)O)o1 (centres unmarked) [mumefural],numbers of microglia (lba-1 positive cells) in the hippocampus,"FIGS. 15A, 15B",significantly decreased
same,numbers of microglia (lba-1 positive cells) in the white matter,"FIGS. 15C, 15D",significantly decreased
